Assay results from patent publication US10227331B2 (priority 2015, dated 2019).
Like-named read-outs stand apart in the source and are kept apart here.

Legend:
[1] = system: P. aeruginosa expressing IMP-1, efflux+ (MB9798); type: cell-based, Pseudomonas aeruginosa; conditions: for P. aeruginosa expressing IMP-1, efflux+ (MB9798) MITC95: imipenem at 2 μg/mL, in the presence of a class A, C, D serine β-lactamase inhibitor closely related to relebactam; for Efflux ratio: ratio MITC95 PA_9798/MITC95 PA_9799
Description: (§1) The strain background is Pseudomonas aeruginosa PAO1.

VIM-1 = VIM-1 (Pseudomonas aeruginosa (strain ATCC 15692 / DSM 22644 / CIP 104116 / JCM 14847 / LMG 12228 / 1C / PRS 101 / PAO1), UniProt A0A0F7KYQ8); assay: biochemical; conditions: CCF2-FA substrate, 2 hours at 25° C
Outline: (§2)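 Semi-log dose-response curves, fitted with a 4-parameter model, gave IC50s. The underlying signal was CCF2-FA fluorescence following 2 hours at 25° C with enzyme, substrate and inhibitor combined.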

[2] = system: P. aeruginosa expressing IMP-1, efflux− (MB9799); assay: Efflux: concentration of MBL inhibitor which restores susceptibility to imipenem; type: cell-based, Pseudomonas aeruginosa; conditions: imipenem at 2 μg/mL, in the presence of a class A, C, D serine β-lactamase inhibitor closely related to relebactam
Description: as §1

[3] = system: Serratia marcescens expressing IMP-1 (CL5741); type: cell-based; conditions: with imipenem 1 μg/ml; 95% inhibition of bacterial growth
Outline: (§3)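 Restoration of imipenem susceptibility (1 μg/ml imipenem) was judged by absorbance after 22–24 h at 35° C. Test compound was added to bacteria suspended 1:100 in 1.1× CAMHB from overnight blood-agar cultures.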

[4] = system: Klebsiella pneumoniae expressing VIM-1 (IHMA599644); type: cell-based; conditions: with imipenem 1 μg/ml; 95% inhibition of bacterial growth
Outline: as §3

[5] = system: Escherichia coli expressing NDM-1 (CLB30005, CLB30016); type: cell-based; conditions: with imipenem 1 μg/ml; 95% inhibition of bacterial growth
Outline: as §3

NDM-1 = NDM-1 (Klebsiella pneumoniae, UniProt C7C422); assay: biochemical; type: biochemical; conditions: CCF2-FA substrate, 2 hours at 25° C; read-out: NDM-1 IC50
Outline: as §2

IMP-1 = IMP-1 (Serratia marcescens, UniProt P52699); assay: biochemical; type: biochemical
Outline: as §2

[6] = CCF2-FA substrate, 2 hours at 25° C, read-out: IMP-1 IC50

Chain of IMP-1 (P52699 whole entry, looked up, species assumed): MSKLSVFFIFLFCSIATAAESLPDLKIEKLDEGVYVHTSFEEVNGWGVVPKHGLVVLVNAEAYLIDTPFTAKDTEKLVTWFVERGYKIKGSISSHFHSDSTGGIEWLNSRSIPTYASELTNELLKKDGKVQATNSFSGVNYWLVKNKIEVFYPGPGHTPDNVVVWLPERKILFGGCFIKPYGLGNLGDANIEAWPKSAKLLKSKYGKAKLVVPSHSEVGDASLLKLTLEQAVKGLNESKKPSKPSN
Chain of NDM-1 (C7C422 whole entry, looked up, species assumed): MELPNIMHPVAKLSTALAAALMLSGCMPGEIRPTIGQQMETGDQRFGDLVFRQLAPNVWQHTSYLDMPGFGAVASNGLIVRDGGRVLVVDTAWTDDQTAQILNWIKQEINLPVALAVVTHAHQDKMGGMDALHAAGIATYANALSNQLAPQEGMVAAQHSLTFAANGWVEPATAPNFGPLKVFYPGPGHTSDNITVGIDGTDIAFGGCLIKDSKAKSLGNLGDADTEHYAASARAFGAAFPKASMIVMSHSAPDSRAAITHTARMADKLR

Row | SMILES | P. aeruginosa expressing IMP-1, efflux+ (MB9798) MITC95 [1] [µM] | Efflux ratio [1] | IC50 (VIM-1) [nM] | P. aeruginosa expressing IMP-1, efflux− (MB9799) MITC95 [2] [µM] | Serratia marcescens expressing IMP-1 (CL5741) MITC95 [3] [µM] | Klebsiella pneumoniae expressing VIM-1 (IHMA599644) MITC95 [4] [µM] | Escherichia coli expressing NDM-1 (CLB30016) MITC95 [5] [µM] | IC50 (NDM-1) [nM] | IC50 (IMP-1; [6]) [nM] | IC50 (IMP-1) [nM]
1 | Cc1ccc(-c2ccc(S(=O)(=O)[C@H]3CCNC3)c(S(N)(=O)=O)c2-c2nn[nH]n2)c2nc(N)sc12 [Example 188, 3-(2-amino-7-methylbenzo[d]thiazol-4-yl)-6-((S)-pyrrolidin-3-ylsulfonyl)-2-(2H-tetrazol-5-yl)benzenesulfonamide] | 1.563 | 2.00 | 0.113 | 0.7813 | 0.7813 | 1.563 | 1.563 | 0.0435 | 0.109 | 
2 | Nc1nc2c(-c3ccc(S(=O)(=O)[C@@H]4CCNC4)c(S(N)(=O)=O)c3-c3nn[nH]n3)cccc2o1 [Example 189, 3-(2-aminobenzo[d]oxazol-4-yl)-6-((R)-pyrrolidin-3-ylsulfonyl)-2-(2H-tetrazol-5-yl)benzenesulfonamide] | 0.7813 | 1.00 | 0.419 | 0.7813 | 1.563 | 1.563 | 1.563 | 0.219 | 0.332 | 
3 | Nc1nc2c(-c3ccc(S(=O)(=O)[C@H]4CCNC4)c(S(N)(=O)=O)c3-c3nn[nH]n3)cccc2o1 [Example 190, 3-(2-aminobenzo[d]oxazol-4-yl)-6-((S)-pyrrolidin-3-ylsulfonyl)-2-(2H-tetrazol-5-yl)benzenesulfonamide] | 1.563 | 1.00 | 0.169 | 1.563 | 1.563 | 3.125 | 1.563 | 0.113 |  | 0.352
4 | CS(=O)(=O)c1ccc(-c2cccc3cn[nH]c23)c(-c2nn[nH]n2)c1S(N)(=O)=O [Example 191, 3-(1H-indazol-7-yl)-6-(methylsulfonyl)-2-(2H-tetrazol-5-yl)benzenesulfonamide] | 25 | 15.99 | 0.298 | 1.563 | 3.125 | 6.25 | 3.125 | 0.436 | 0.21 | 
5 | Cn1c(N)nc2c(-c3ccc(S(C)(=O)=O)c(S(N)(=O)=O)c3-c3nn[nH]n3)cccc21 [Example 192, 3-(2-amino-1-methyl-1H-benzo[d]imidazol-4-yl)-6-(methylsulfonyl)-2-(2H-tetrazol-5-yl)benzenesulfonamide] | 3.125 | 4.00 | 0.194 | 0.7813 | 1.563 | 3.125 | 0.7813 | 1 | 0.552 | 
6 | Cc1ccc(-c2ccc(S(C)(=O)=O)c(S(N)(=O)=O)c2-c2nn[nH]n2)c2nc(N)sc12 [Example 193, 3-(2-amino-7-methylbenzo[d]thiazol-4-yl)-6-(methylsulfonyl)-2-(2H-tetrazol-5-yl)benzenesulfonamide] | 6.25 | 4.00 | 0.106 | 1.563 | 1.563 | 6.25 | 3.125 | 0.137 | 0.0941 | 
7 | NCCCS(=O)(=O)c1ccc(-c2cccc3sc(N)nc23)c(-c2nn[nH]n2)c1S(N)(=O)=O [Example 194, 3-(2-aminobenzo[d]thiazol-4-yl)-6-(3-aminopropylsulfonyl)-2-(2H-tetrazol-5-yl)benzenesulfonamide] | 0.3906 | 0.50 | 0.208 | 0.7813 | 0.7813 | 1.563 | 0.7813 | 0.0908 | 0.154 | 
8 | Cn1c(N)nc2c(-c3ccc(S(=O)(=O)CCCN)c(S(N)(=O)=O)c3-c3nn[nH]n3)cccc21 [Example 195, 3-(2-amino-1-methyl-1H-benzo[d]imidazol-4-yl)-6-(3-aminopropylsulfonyl)-2-(2H-tetrazol-5-yl)benzenesulfonamide] | 0.7813 | 1.00 | 0.155 | 0.7813 | 0.7813 | 1.563 | 0.3906 | 0.26 | 0.251 | 
9 | N#Cc1cccc(-c2ccc(S(=O)(=O)C3CNC3)c(S(N)(=O)=O)c2-c2nn[nH]n2)c1N [Example 196, 2′-amino-4-(azetidin-3-ylsulfonyl)-3′-cyano-2-(2H-tetrazol-5-yl)-[1,1′-biphenyl]-3-sulfonamide] | 12.5 | 16.00 | 0.233 | 0.7813 | 1.563 | 1.563 | 0.7813 | 0.315 | 1.54 | 
10 | COC(=O)c1cccc(-c2ccc(S(=O)(=O)CCN)c(S(N)(=O)=O)c2-c2nn[nH]n2)c1N [Example 197, methyl 2-amino-4′-((2-aminoethyl)sulfonyl)-3′-sulfamoyl-2′-(2H-tetrazol-5-yl)-[1,1′-biphenyl]-3-carboxylate] | 12.5 | 8.00 | 0.262 | 1.563 | 1.563 | 3.125 | 0.7813 | 0.556 | 0.554 | 
11 | NCCS(=O)(=O)c1ccc(-c2cccc3[nH]cnc23)c(-c2nn[nH]n2)c1S(N)(=O)=O [Example 198, 6-((2-aminoethyl)sulfonyl)-3-(1H-benzo[d]imidazol-4-yl)-2-(2H-tetrazol-5-yl)benzenesulfonamide] | 0.7813 | 1.00 | 0.206 | 0.7813 | 1.563 | 1.563 | 0.7813 | 0.238 | 0.374 | 
12 | NCCS(=O)(=O)c1ccc(-c2cccc(C(=O)O)c2N)c(-c2nn[nH]n2)c1S(N)(=O)=O [Example 199, 2-Amino-4′-((2-aminoethyl)sulfonyl)-3′-sulfamoyl-2′-(2H-tetrazol-5-yl)-[1,1′-biphenyl]-3-carboxylic Acid] | 12.5 | 2.00 | 0.646 | 6.25 | 12.5 | 25 | 6.25 | 0.197 | 1.84 | 
13 | NS(=O)(=O)c1c(S(=O)(=O)C2CNC2)ccc(-c2ccnc3[nH]nnc23)c1-c1nn[nH]n1 [Example 200, 3-(3H-[1,2,3]triazolo[4,5-b]pyridin-7-yl)-6-(azetidin-3-ylsulfonyl)-2-(2H-tetrazol-5-yl)benzenesulfonamide] | 100 | 4.00 | 21.6 | 25 | 25 | 100 | 25 | 5.65 | 13.7 | 
